By IC50 is commonly meant the midpoint of a concentration-inhibition curve.

The first assay concerns phospho-serine 2056 DNA-PK in HCT116 cells. As to the kind of experiment: DNA-PK phosphorylation at serine 2056 (cellular), ELISA in bleomycin-treated HCT116 cells. The following applies: Homo sapiens, HCT-116, 6 h, cellular; HCT116 cells, 10 μM bleomycin, six hours; read-out: IC50 pDNA-PK. It counts as cell-based. A digest of the protocol:
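After overnight seeding, HCT116 cells received compound with 10 μM bleomycin for 6 h; phospho-DNA-PK ELISA signals were scaled to total DNA-PKcs, DMSO serving as blank.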
In general terms: An ELISA detects its analyte on a solid surface through an enzyme-linked reagent.
Turning to `O=c1ccc(C(O)c2cc(-c3ncnc4cc(N5CCOCC5)ccc34)c(F)cc2Cl)n[nH]1` (centres unmarked) [Example 92, 3-[[2-Chloro-4-fluoro-5-(7-morpholino-quinazolin-4-yl)phenyl]-hydroxymethyl]-1H-pyridazin-6-one], the IC50 is below 0.5 µM.
The same measure, in the same setting: as for `Cc1ccc(C(O)c2ccc(F)c(-c3ncnc4cc(N5CCOCC5)ccc34)c2)nn1` (centres unmarked) [Example 70, [4-Fluoro-3-(7-morpholin-4-yl-quinazolin-4-yl)phenyl]-(6-methylpyridazin-3-yl)methanol], the figure is 0.5 to 5 µM; as for `OC(c1ccc(F)c(-c2ncnc3cc(N4CCOCC4)ccc23)c1)c1nccnc1OC1COC1` (centres unmarked) [Example 32, [4-fluoro-3-(7-morpholin-4-yl-quinazolin-4-yl)phenyl]-[3-(oxetan-3-yloxy)-pyrazin-2-yl]methanol], 5 to 10 µM.
In the case of `NC(=O)Cn1nc(C(O)c2cc(-c3ncnc4cc(N5CCOCC5)ccc34)c(F)cc2Cl)ccc1=O` (centres unmarked) [Example 98, 2-(3-{[2-Chloro-4-fluoro-5-(7-morpholin-4-ylquinazolin-4-yl)-phenyl]hydroxymethyl}-6-oxo-6H-pyridazin-1-yl)acetamide], the half-inhibitory concentration (IC50) was in the range of 10 to 30 µM.
On the same count and under the same terms, as for `COc1cnc(Cl)c(C(O)c2ccc(F)c(-c3ncnc4cc(N5CCOCC5)ccc34)c2)c1` (centres unmarked) [Example 22, (2-Chloro-5-methoxy-pyridin-3-yl)-[4-fluoro-3-(7-morpholin-4-yl-quinazolin-4-yl)phenyl]-methanol], the figure is below 0.5 µM.
In the case of `Cc1nccnc1C(O)c1ccc(F)c(-c2ncnc3cc(N4CCOCC4)ccc23)c1` (centres unmarked) [Example 78, [4-Fluoro-3-(7-morpholin-4-yl-quinazolin-4-yl)phenyl]-(3-methylpyrazin-2-yl)-methanol], the IC50 is below 0.5 µM.
Take `OC(c1ccn2nccc2n1)c1cc(-c2ncnc3cc(N4CCOCC4)ccc23)c(F)cc1Cl` (centres unmarked) [Example 39, [2-Chloro-4-fluoro-5-(7-morpholin-4-yl-quinazolin-4-yl)phenyl]-pyrazolo[1,5-a]-pyrimidin-5-ylmethanol]: the IC50 is below 0.5 µM.

The assay is the same for the next values; noted with them: Homo sapiens, HCT-116, cellular DNA-PK phosphorylation at serine 2056, HCT116 cells; read-out: IC50 pDNA-PK.
As for `Cn1ncc2c(C(O)c3ccc(F)c(-c4ncnc5cc(N6CCOCC6)ccc45)c3)ncnc21` (centres unmarked) [Example 404, [4-Fluoro-3-(7-morpholin-4-yl-quinazolin-4-yl)-phenyl]-(1-methyl-1H-pyrazolo[3,4-d}-pyrimidin-4-yl)-methanol], the half-inhibitory concentration (IC50) is below 0.5 µM.
On the same count and under the same terms, as for `OC(c1cc(-c2ncnc3cc(N4CCOCC4)ccc23)ccc1Cl)c1ncnc2sccc12` (centres unmarked) [Example 430, [2-Chloro-5-(7-morpholin-4-yl-quinazolin-4-yl)-phenyl]thieno[2,3-d}-pyrimidin-4-yl-methanol], the figure is below 0.5 µM; as for `Cc1nccnc1C(O)c1cc(-c2ncnc3cc(N4CCOCC4)ccc23)c(F)cc1Cl` (centres unmarked) [Example 457, [2-Chloro-4-fluoro-5-(7-morpholin-4-yl-quinazolin-4-yl)-phenyl]-(3-methyl-pyrazin-2-yl)-methanol], below 0.5 µM.
Still for that read-out and setting: as for `OC(c1ccc(F)c(-c2ncnc3cc(N4CCOCC4)ccc23)c1)c1ncccc1OC(F)(F)F` (centres unmarked) [Example 475, [4-Fluoro-3-(7-morpholin-4-yl-quinazolin-4-yl)-phenyl]-(3-trifluoro-methoxypyridin-2-yl)-methanol], the figure is below 0.5 µM.
The same measure, in the same setting: as for `Cn1c(C(O)c2cc(-c3ncnc4cc(N5CCOCC5)ccc34)c(F)cc2Cl)cccc1=O` (centres unmarked) [Example 382, 6-{[2-Chloro-4-fluoro-5-(7-morpholin-4-yl-quinazolin-4-yl)-phenyl]hydroxy-methyl}-1-methyl-1H-pyridin-2-one (Ena 2)], the figure is 0.5 to 5 µM.

The assay is the same for the next values; noted with them: Homo sapiens, HCT-116, phospho-serine 2056 DNA-PK, bleomycin-treated HCT116 cells; class symbols A-D; read-out: IC50 pDNA-PK.
`COc1ccc([C@H](O)c2cc(-c3ncnc4cc(N5CCOCC5)ccc34)c(F)cc2Cl)nn1` [Example 135, (R)-[2-Chloro-4-fluoro-5-(7-morpholin-4-yl-quinazolin-4-yl)-phenyl]-(6-methoxy-pyridazin-3-yl)-methanol]: the half-inhibitory concentration (IC50) was 10 to 30 µM.
Take `CN(C)CCOc1ccc(C(O)c2ccc(F)c(-c3ncnc4cc(N5CCOCC5)ccc34)c2)nn1` (centres unmarked) [Example 133, [6-(2-Dimethyl-amino-ethoxy)-pyridazin-3-yl]-[4-fluoro-3-(7-morpholin-4-yl-quinazolin-4-yl)-phenyl]methanol]: the IC50 lay in the range of 5 to 10 µM.
Still for that read-out and setting: as for `CC(O)(c1cncc(-c2ncnc3cc(N4CCOCC4)ccc23)c1)c1nccs1` (centres unmarked) [Example 152, 1-[5-(7-Morpholin-4-ylquinazolin-4-yl)-pyridin-3-yl]-1-thiazol-2-ylethanol], the figure is 10 to 30 µM; as for `COc1ccc(C(O)c2cc(-c3ncnc4cc(N5CCOCC5)ccc34)c(F)cc2F)cn1` (centres unmarked) [Example 221, [2,4-Difluoro-5-(7-morpholin-4-yl-quinazolin-4-yl)-phenyl]-(6-methoxy-pyridin-3-yl)methanol], 0.5 to 5 µM.
Same read-out and setting: as for `OC(c1cccc(-c2ncnc3cc(N4CCOCC4)ccc23)c1)c1nccs1` (centres unmarked) [Example 150, [3-(7-Morpholin-4-ylquinazolin-4-yl)-phenyl]thiazol-2-yl-methanol], the figure is 5 to 10 µM; as for `CSc1ccc(C(O)c2cc(-c3ncnc4cc(N5CCOCC5)ccc34)c(F)cc2Cl)nn1` (centres unmarked) [Example 108, [2-Chloro-4-fluoro-5-(7-morpholin-4-yl-quinazolin-4-yl)-phenyl]-(6-methyl-sulfanylpyridazin-3-yl)methanol], below 0.5 µM.

Staying with this assay, now noted: Homo sapiens, HCT-116, phospho-serine 2056 DNA-PK, bleomycin-treated HCT116 cells; read-out: IC50 pDNA-PK.
Take `COc1nccnc1C(C(N)=O)c1cc(-c2ncnc3cc(N4CCOCC4)ccc23)ccc1F` (centres unmarked) [Example 316, 2-[2-Fluoro-5-(7-morpholin-4-yl-quinazolin-4-yl)-phenyl]-2-(3-methoxy-pyrazin-2-yl)acetamide]: the half-inhibitory concentration (IC50) is 5 to 10 µM.
Same read-out and setting: as for `O=c1[nH]nc(C(O)c2ccc(F)c(-c3ncnc4cc(N5CCOCC5)ccc34)c2)c2sccc12` (centres unmarked) [Example 337, 7-[[4-Fluoro-3-(7-morpholino-quinazolin-4-yl)-phenyl]hydroxy-methyl]-5H-thieno-[2,3-d}pyridazin-4-one], the figure is 0.5 to 5 µM; as for `OC(c1cc(-c2ncnc3cc(N4CCOCC4)ccc23)c(F)cc1F)c1nccn2cccc12` (centres unmarked) [Example 358, [2,4-Difluoro-5-(7-morpholin-4-yl-quinazolin-4-yl)-phenyl]pyrrolo[1,2-a]-pyrazin-1-ylmethanol], below 0.5 µM; as for `COc1ccc(C(C(N)=O)c2cc(-c3ncnc4cc(N5CCOCC5)ccc34)ccc2Cl)nn1` (centres unmarked) [Example 310, 2-[2-Chloro-5-(7-morpholin-4-yl-quinazolin-4-yl)-phenyl]-2-(6-methoxy-pyridazin-3-yl)acetamide], 10 to 30 µM.
In the case of `Cc1cnc(C(O)c2ccc(F)c(-c3ncnc4cc(N5CCOCC5)ccc34)c2)c(C)n1` (centres unmarked) [Example 354, (3,5-Dimethyl-pyrazin-2-yl)-[4-fluoro-3-(7-morpholin-4-yl-quinazolin-4-yl)-phenyl]methanol], the 50% inhibitory concentration (IC50) was below 0.5 µM.
Consider `Nc1cncc(C(O)c2ccc(F)c(-c3ncnc4cc(N5CCOCC5)ccc34)c2)n1` (centres unmarked) [Example 302, (6-Amino-pyrazin-2-yl)-[4-fluoro-3-(7-morpholin-4-yl-quinazolin-4-yl)-phenyl]methanol], for which the half-maximal inhibitory concentration (IC50) lay within 5 to 10 µM.

Still in this assay, the particulars now being: cellular DNA-PK phosphorylation at serine 2056, HCT116 cells; read-out: IC50 pDNA-PK.
Turning to `Cc1cncnc1C(O)c1cc(-c2ncnc3cc(N4CCOCC4)ccc23)ccc1Cl` (centres unmarked) [Example 418, [2-Chloro-5-(7-morpholin-4-yl-quinazolin-4-yl)-phenyl]-(5-methyl-pyrimidin-4-yl)-methanol (Ena 1)], the half-maximal inhibitory concentration (IC50) lay within 0.5 to 5 µM.
For the compound `COc1cncnc1C(O)c1cc(-c2ncnc3cc(N4CCOCC4)ccc23)ccc1Cl` (centres unmarked) [Example 409, [2-Chloro-5-(7-morpholin-4-yl-quinazolin-4-yl)-phenyl]-(5-methoxy-pyrimidin-4-yl)-methanol (Ena 1)], the IC50 fell in the range of 0.5 to 5 µM.
On the same count and under the same terms, as for `OC(c1ccc(F)c(-c2ncnc3cc(N4CCOCC4)ccc23)c1)c1ncnc2ccoc12` (centres unmarked) [Example 471, [4-Fluoro-3-(7-morpholin-4-yl-quinazolin-4-yl)-phenyl]furo[3,2-d}-pyrimidin-4-yl-methanol], the figure is below 0.5 µM; as for `Cc1cncnc1C(C(N)=O)c1cc(-c2ncnc3cc(N4CCOCC4)ccc23)ccc1Cl` (centres unmarked) [Example 378, 2-[2-Chloro-5-(7-morpholin-4-yl-quinazolin-4-yl)-phenyl]-2-(5-methyl-pyrimidin-4-yl)-acetamide (Ena 1)], 0.5 to 5 µM.

Staying with this assay, now noted: cellular; HCT116 cells, 10 μM bleomycin, six hours; read-out: IC50 pDNA-PK.
With `OC(c1ccc2nccn2n1)c1cc(-c2ncnc3cc(N4CCOCC4)ccc23)c(F)cc1F` (centres unmarked) [Example 51, [2,4-Difluoro-5-(7-morpholin-4-yl-quinazolin-4-yl)phenyl]-imidazo[1,2-b]pyridazin-6-ylmethanol], the IC50 is below 0.5 µM.
The same measure, in the same setting: as for `OC(c1ccc2nccn2n1)c1cc(-c2ncnc3cc(N4CCOCC4)ccc23)c(F)cc1Cl` (centres unmarked) [Example 57, [2-Chloro-4-fluoro-5-(7-morpholin-4-yl-quinazolin-4-yl)phenyl]-imidazo[1,2-b]pyridazin-6-ylmethanol], the figure is below 0.5 µM.

Still in this assay, the particulars now being: phospho-serine 2056 DNA-PK, bleomycin-treated HCT116 cells; read-out: IC50 pDNA-PK.
Turning to `[2H]C1([2H])OC([2H])([2H])C([2H])([2H])N(c2ccc3c(-c4cc([C@H](O)c5nccnc5C)ccc4F)ncnc3c2)C1([2H])[2H]` [Example 243, (S)-[4-Fluoro-3-[7-(2,2,3,3,5,5,6,6-octadeuterio-morpholin-4-yl)quinazolin-4-yl]phenyl]-(3-methylpyrazin-2-yl)methanol], the half-maximal inhibitory concentration (IC50) fell in the range of 0.5 to 5 µM.
Same read-out and setting: as for `COc1ccc(C(O)c2cc(-c3ncnc4cc(N5CCOCC5)cc(F)c34)c(F)cc2Cl)nn1` (centres unmarked) [Example 271, [2-Chloro-4-fluoro-5-(5-fluoro-7-morpholin-4-yl-quinazolin-4-yl)-phenyl]-(6-methoxy-pyridazin-3-yl)-methanol (Ena 1)], the figure is below 0.5 µM.

The values are drawn from patent publication US11065253B2, “Arylquinazolines” (Merck Patent GmbH, priority 2013, dated 2021).
